Data as given in patent publication US20140205566A1, “CYCLIC NUCLEUOSIDE DERIVATIVES AND USES THEREOF” (NOVARTIS AG, priority 2012, published 2014).

How the values were obtained:
[1] = Nucleoside triphosphate concentrations in dog PBMC after oral administration; assay type: in vivo; conditions: oral administration of 3 mg/Kg
Procedure: Male beagle dogs were administered a single intravenous (0.5 mg/kg) or oral dose (3-15 mg/kg) of a representative compound of the present invention. Blood samples (3.5 mL) were collected at 0, 0.0833 (IV only), 0.25, 0.5, 1, 2, 4, 6, 8, 24, 48, 72 hours post-dose through the jugular vein. K2EDTA was used as the anticoagulant. Plasma was prepared from an aliquot of 0.5 mL of blood and assayed for the compound and metabolites by tandem mass spectrometric method (LC/MS-MS). PBMC was isolated from 3 mL of blood and assayed for nucleoside triphosphate (NTP) levels by LC/MS-MS.
Three mL of blood was collected from the dog into EDTA vacutainers and mixed on a rocker & immediately placed on ice. The blood was transferred to a 15 mL falcon tube. Three mL PBS (w/o Ca/Mg) and 3 mL 6% dextran (in PBS) were added and was left for 30 minutes on ice to allow the red blood cells to sediment. Blood supernatant (5-7 mL) was layered on top of 5 mL of Mammalian-Lympholyte in 15-mL conical blue-top tube, centrifuged for 20 minutes at 1500 g at 4° C.
After centrifugation, the well-defined lymphocyte (PBMC) layer at the interface was carefully removed to a new 15-mL centrifuge tube and was diluted to a total volume of 15 mL to reduce the density of the solution. The content was centrifuged at 800 g for 10 minutes at 4° C. to pellet the PBMC. The pellet was re-suspended in 1 mL of PBS and further diluted to 10 mL, followed by centrifugation at 800 g for 10 minutes at 4° C. to pellet the PBMC. The pellet was re-suspended in 1 mL PBS and followed by 5 mL ice cold de-ionized water, mixed for 30 seconds by inverting to lyse the remaining red blood cells. Five ml of ice cold 2×PBS was added to bring the mixture back to isotonicity. The mixture was centrifuged at 800 g for 10 minutes at 4° C. to pellet the cells and discard the supernatant. The resulting pellet was re-suspended in 1 mL PBS. An aliquot of 10 μL of the pellet suspension was diluted into 90 μL of PBS for cell count. An aliquot of each sample was transferred to a fresh Eppendorf tubes and centrifuged at 5000 rpm for 5 min at 4° C. The pellets were ready for bioanalysis.
Concentrations of nucleoside triphosphate in PBMC were determined by tandem mass spectrometric method (LC/MS/MS). Chromatography was conducted on ACQUITY UPLC HSS T3 Column, 100 Å, 1.8 μm, 2.1 mm×50 mm using a mobile phase gradient consisting of (A) 2 mM ammonium dihydrogen-phosphate and 5 mM Hexylamine in (B) Acetonitrile, 8% B to 22% B in 3.2 minutes at a flow rate of 0.3 mL/minute. The mass spectrometer was operated in the Multiple Reaction Monitoring (MRM) using negative ionization mode. An internal standard, Carbosynth was used in the construction of standard calibration curves in blank PBMC obtained commercially. The nucleoside triphosphate was monitored at m/z 538.1>158.9 and the internal standard was monitored at 536.1>158.9. The dynamic range was 50, 100, 300, 1000, 3000, 10000, 30000 fmole/3×10^6 PBMC.

[2] = CCK8 cytotoxicity assay in THP-1 cells; assay type: cell-based; conditions: human, CCK-8
Procedure: 4 day cytotoxicity assay using THP-1 cells: THP-1 cells grown in suspension were counted and diluted to 8×10^4 cells/ml in RPMI-1640 media supplemented with 10% fetal bovine serum (FBS) and 1% penicillin/streptomycin. 25 ul of the THP-1 containing media consisting of 2000 cells were dispensed in 384-well tissue culture plate and pre-incubated at room temperature for 30 minutes, followed by 37° C., 5% CO2 overnight in the humidified incubator. On the next day, serial-diluted compound plates were prepared and 125 nl of compounds at various concentrations were then dispensed into the tissue culture well (200× dilution). The plates were then transferred to 37° C., 5% CO2 humidified incubator for additional 96 hours. Cytotoxicity was measured by CCK-8 assay. Briefly, CCK-8 was thawed on bench top and diluted 2.5× with the growth media. 35 ul of the pre-diluted CCK-8 was then introduced into each well and the plates were then further incubated in 37° C., 5% CO2 humidified incubator for 3 hours. The absorbance was read by Envision at 450 nm. Dose response curves were calculated as in the previous section (n=2). The CC50 is estimated as the concentration of the compound which will inhibit 50% of the signal. A positive control (puromycin) was used to ensure the quality of the data.

[3] = CCK8 cytotoxicity assay in HepG2 cells; assay type: cell-based; conditions: human, CCK-8
Procedure: HepG2 cells were trypsinized, washed, counted and diluted to 1.6×10^4 cells/ml in DMEM-W/O Glucose, supplemented with 10% Fetal bovine serum (FBS), 1% Penicillin/Streptomycin, 2 mM HEPES, 1 mM Sodium Pyruvate, 10 mM Galactose & 2 mM Glutamine. 25 μl of the media containing 400 cells per well were dispensed in clear 384-well tissue culture plate and incubated at room temperature for 30 minutes. The plate was then transferred and placed at 37° C., 5% CO2 humidified incubator overnight. On the next day, serial-diluted compound plates were prepared and 125 nl of compounds at various concentrations were then dispensed into the tissue culture well (200× dilution). The plates were then transferred to 37° C., 5% CO2 humidified incubator for additional 96 hours. Cytotoxicity was measured by CCK-8 assay. Briefly, CCK-8 was thawed on bench top and diluted 2.5× with the growth media. 35 ul of the pre-diluted CCK-8 was then introduced into each well and the plates were then further incubated in 37° C., 5% CO2 humidified incubator for 3 hours. The absorbance was read by Envision at 450 nm. Dose response curves were calculated as in the previous section. The CC50 is estimated as the concentration of the compound which will inhibit 50% of the signal. A positive control (puromycin) was used to ensure the quality of the data.

[4] = Stability in liver microsomes; assay type: in vitro ADME; conditions: human, read-out: liver microsomes t1/2

SMILES	NTP AUC0-24h [1] [fmol/3 million cells]	NTP Cmax [1] [fmol/3 million cells]	CC50 at 96 h [2] [µM]	CC50 at 96 h [3] [µM]	half-life [4] [min]
CCOc1nc(N)nc2c1ncn2[C@@H]1O[C@@H]2CO[P@@](=O)(N[C@H](C)C(=O)OC(C)C)O[C@H]2[C@@]1(C)F [Example 6, (R)-isopropyl 2-(((2S,4aR,6R,7R,7aR)-6-(2-amino-6-ethoxy-9H-purin-9-yl)-7-fluoro-7-methyl-2-oxidotetrahydro-4H-furo[3,2-d][1,3,2]dioxaphosphinin-2-yl)amino)propanoate]	11049 ± 2190	777 ± 45.2	> 50	> 50	
CCOC(=O)[C@H](C)N[P@@]1(=O)OC[C@H]2O[C@@H](n3cnc4c(OCC)nc(N)nc43)[C@](C)(F)[C@@H]2O1 [Example 1, (S)-ethyl 2-(((2R,4aR,6R,7R,7aR)-6-(2-amino-6-ethoxy-9H-purin-9-yl)-7-fluoro-7-methyl-2-oxidotetrahydro-4H-furo[3,2-d][1,3,2]dioxaphosphinin-2-yl)amino)propanoate]	36900 ± 11358	2331 ± 1181	> 50	> 50	47
CCOc1nc(N)nc2c1ncn2[C@@H]1O[C@@H]2CO[P@](=O)(N[C@@H](C)C(=O)OC)O[C@H]2[C@@]1(C)F [Example 3, (S)-methyl 2-(((2R,4aR,6R,7R,7aR)-6-(2-amino-6-ethoxy-9H-purin-9-yl)-7-fluoro-7-methyl-2-oxidotetrahydro-4H-furo[3,2-d][1,3,2]dioxaphosphinin-2-yl)amino)propanoate]	10457 ± 2983	662 ± 228	> 50	> 50	57
CCOc1nc(N)nc2c1ncn2[C@@H]1O[C@@H]2CO[P@@](=O)(N[C@@H](C)C(=O)OC(C)C)O[C@H]2[C@@]1(C)F [Example 2, (S)-isopropyl 2-(((2S,4aR,6R,7R,7aR)-6-(2-amino-6-ethoxy-9H-purin-9-yl)-7-fluoro-7-methyl-2-oxidotetrahydro-4H-furo[3,2-d][1,3,2]dioxaphosphinin-2-yl)amino)propanoate]	7218 ± 5117	618 ± 308	34	> 50	32
